Results from patent US5407918A, “16-membered macrolide derivatives and process for producing the same” (Meiji Seika Kaisha, Ltd., priority 1992, dated 1995).
≈ marks a conversion by molar mass, not a printed value. Like-named read-outs stand apart in the source and are kept apart here.

Legend:
[1] = concentration in serum after oral administration to mice, bioassay; type: in vivo, mice (Jcl:ICR)
Experimental: The compound (3) was mixed with a 0.2% solution of carboxymethylcellulose to give a concentration of 4 mg/ml and a 1 ml portion of the resulting emulsion was orally administered to 4-week-old male Jcl:ICR mice. Blood was collected from armpit of the mice 30, 60, 120, 240 and 360 minutes after the administration of the test compound (n=2). The collected blood was allowed to stand at room temperature for about 2 hours and centrifuged for 20 minutes with a centrifuge (KUBOTA KS-5000P) to obtain serum. To the serum was added an equivalent volume of 50% CH3 CN-50 mM phosphate (1:1 by volume) buffer (pH 7.0). The resulting mixture served as a serum sample. The concentration of the test compound in the serum sample was measured by the following bioassay method.
One hundred […] of the serum sample was poured into a hole made on a test plate containing 40 ml of MRAPJ medium (6 g/l peptone, 3 g/l yeast extract, 1.5 g/l meat extract, 1 g/l glucose and 15 g/l agar, pH 6.5) supplemented with a solution of M. Iuteus ATCC9341 (1%) and incubated at 32° C. for 18 hours and MIC was measured based on the calibration curve. MOM, MDM and RKM were also tested for comparison. […] Thus a long-pending problem of "low concentration in serum" of 16-membered macrolide antibiotics has been solved. […] Thus this compound is considered as a macrolide derivative showing new pharmacokinetics.
Further, a pharmacokinetics test on the compound (12) of the present invention is carried out in the same manner as described above. Namely, 200 mg/kg of the compound (12) is orally administered to mice and the concentration of this compound in the serum is determined by a bioassay method with the use of M. luteus as a test strain. […] The disadvantage of 16-membered ring macrolide antibiotics, which has been pointed out for a long time, has been thus overcome.

test strains = experiment: antimicrobial activity in vitro, comparison in words; type: cell-based
Experimental: (§1) Antimicrobial activities of the compounds of the present invention were determined by measuring minimum inhibitory concentration (MIC). Minimum inhibitory concentration was determined by the agar plate dilution method in the following manner.
(§2) Test strains were subjected to seed culture using Sensitivity test broth (STB, Nissui Pharmaceutical) except that the strains belonging to the genus Streptococcus, Branhamella and Haemophilus were cultured on blood agar plate. A 5 μl portion of cell suspension of the test strains having about 10^6 CFU/ml was inoculated into Sensitivity disk agar (SDA, Nissui Pharmaceutical) supplemented with 5% horse blood and incubated at 37° C. for 20 hours. Then, MIC was measured. For comparison, MDM and leucomycin A7 (LM-A7) was also tested.

Gram-positive bacteria = experiment: antimicrobial activity in vitro (summary in words); type: cell-based; conditions: from Tables 2 and 3
Experimental: as §1, §2

S. aureus MS15009/pMS99 = experiment: MIC, agar plate dilution method; type: cell-based; conditions: Staphylococcus aureus, MS15009/PMS99, 20 h, read-out: Antimicrobial activity (MIC)
Experimental: as §1, §2

S. aureus 209P JC-1 = experiment: MIC, agar plate dilution method; type: cell-based; conditions: Staphylococcus aureus; S. aureus 209P JC-1; 37° C., 20 hours; read-out: Antimicrobial activity (MIC)
Experimental: as §1, §2

S. Pneumoniae Type 1 = experiment: MIC, agar plate dilution method; type: cell-based; conditions: Streptococcus pneumoniae; S. Pneumoniae Type 1; 37° C., 20 hours; read-out: Antimicrobial activity (MIC)
Experimental: as §1, §2

K. pneumoniae PC1602 = experiment: MIC, agar plate dilution method; type: cell-based; conditions: Klebsiella pneumoniae, 37° C., 20 hours, read-out: Antimicrobial activity (MIC)
Experimental: as §1, §2

S. aureus MS15009/pMS98 = experiment: MIC, agar plate dilution method; type: cell-based; conditions: Staphylococcus aureus, MS15009/PMS98, 20 h, read-out: Antimicrobial activity (MIC)
Experimental: as §1, §2

S. pneumoniae IP692 = experiment: MIC, agar plate dilution method; type: cell-based; conditions: Streptococcus pneumoniae; S. pneumoniae IP692; 37° C., 20 hours; read-out: Antimicrobial activity (MIC)
Experimental: as §1, §2

S. aureus M126 = experiment: MIC, agar plate dilution method; type: cell-based; conditions: Staphylococcus aureus; S. aureus M126; 37° C., 20 hours; read-out: Antimicrobial activity (MIC)
Experimental: as §1, §2

S. aureus MS15026 = experiment: MIC, agar plate dilution method; type: cell-based; conditions: Staphylococcus aureus, 37° C., 20 hours, read-out: Antimicrobial activity (MIC)
Experimental: as §1, §2

S. aureus M133 = experiment: MIC, agar plate dilution method; type: cell-based; conditions: Staphylococcus aureus, 37° C., 20 hours, read-out: Antimicrobial activity (MIC)
Experimental: as §1, §2

E. faecalis W-73 = experiment: MIC, agar plate dilution method; type: cell-based; conditions: Enterococcus faecalis, W73; E. faecalis W-73; 37° C., 20 hours; read-out: Antimicrobial activity (MIC)
Experimental: as §1, §2

S. epidermidis ATCC14990 = experiment: MIC, agar plate dilution method; type: cell-based; conditions: Staphylococcus epidermidis, 37° C., 20 hours, read-out: Antimicrobial activity (MIC)
Experimental: as §1, §2

H. influenzae 9334 = experiment: MIC, agar plate dilution method; type: cell-based; conditions: Haemophilus influenzae; H. influenzae 9334; 37° C., 20 hours; read-out: Antimicrobial activity (MIC)
Experimental: as §1, §2

B. catarrhalis W-0506 = experiment: MIC, agar plate dilution method; type: cell-based; conditions: Moraxella catarrhalis, W0506, 37° C., 20 hours, read-out: Antimicrobial activity (MIC)
Experimental: as §1, §2

M. luteus ATCC9341 = experiment: MIC, agar plate dilution method; type: cell-based; conditions: Micrococcus luteus; M. luteus ATCC9341; 37° C., 20 hours; read-out: Antimicrobial activity (MIC)
Experimental: as §1, §2

E. coli NIHJ JC-2 = experiment: MIC, agar plate dilution method; type: cell-based; conditions: Escherichia coli, NIHJJC2; E. coli NIHJ JC-2; 37° C., 20 hours; read-out: Antimicrobial activity (MIC)
Experimental: as §1, §2

S. aureus MS15027 = experiment: MIC, agar plate dilution method; type: cell-based; conditions: Staphylococcus aureus, 37° C., 20 hours, read-out: Antimicrobial activity (MIC)
Experimental: as §1, §2

B. catarrhalis W-0500 = experiment: MIC, agar plate dilution method; type: cell-based; conditions: Moraxella catarrhalis, W0500, 37° C., 20 hours, read-out: Antimicrobial activity (MIC)
Experimental: as §1, §2

S. Pyogenes Cook = experiment: MIC, agar plate dilution method; type: cell-based; conditions: Streptococcus pyogenes, 37° C., 20 hours, read-out: Antimicrobial activity (MIC)
Experimental: as §1, §2

H. influenzae Type b = experiment: MIC, agar plate dilution method; type: cell-based; conditions: Haemophilus influenzae, read-out: Antimicrobial activity (MIC)
Experimental: as §1, §2

SMILES	antimicrobial activity on Gram-positive bacteria (Gram-positive bacteria)	MIC (S. aureus MS15009/pMS99)	MIC (S. aureus 209P JC-1)	MIC (S. Pneumoniae Type 1)	MIC (K. pneumoniae PC1602)	MIC (S. aureus MS15009/pMS98)	MIC (S. pneumoniae IP692)	MIC (S. aureus M126)	MIC (S. aureus MS15026)	MIC (S. aureus M133)	MIC (E. faecalis W-73)	MIC (S. epidermidis ATCC14990)	MIC (H. influenzae 9334)	MIC (B. catarrhalis W-0506)	MIC (M. luteus ATCC9341)	MIC (E. coli NIHJ JC-2)	MIC (S. aureus MS15027)	MIC (B. catarrhalis W-0500)	MIC (S. Pyogenes Cook)	also measured
CCC(=O)O[C@@H]1CC(=O)O[C@H](C)C/C=C/C=C/[C@H](OC(C)=O)[C@H](C)C[C@H](CC=O)[C@H](O[C@@H]2O[C@H](C)[C@@H](O[C@H]3C[C@@](C)(OC)[C@@H](OCCC(C)C)[C@H](C)O3)[C@H](N(C)C)[C@H]2O)[C@H]1OC [(4)]																				concentration in the serum (in words) [1]: sustains a high concentration in the serum; maximum concentration in the serum compared with compound (3) [1]: exceeds even that of the compound (3); concentration in the serum 6 hours after the administration, % of the maximum level ([1]; 6 hours): more than 80%; Tmax ([1]; mouse, serum, after the administration, read-out: time of maximum concentration in the serum): ~2 h; antimicrobial activity compared with compound (3) (test strains; data are not shown): almost comparable to that of the compound (3)
CCCO[C@H]1[C@H](C)O[C@@H](O[C@H]2[C@H](N(C)C)[C@@H](O)[C@H](O[C@H]3[C@@H](CC=O)C[C@@H](C)[C@@H](O)/C=C/C=C/C[C@@H](C)OC(=O)C[C@@H](O)[C@@H]3OC)O[C@@H]2C)C[C@@]1(C)OC [(9)]	strong antimicrobial activity	> 100 µg/mL	0.2 µg/mL (≈ 0.264 µM)	0.2 µg/mL (≈ 0.264 µM)	> 100 µg/mL	0.39 µg/mL (≈ 0.515 µM)	0.2 µg/mL (≈ 0.264 µM)	> 100 µg/mL	> 100 µg/mL	0.39 µg/mL (≈ 0.515 µM)	0.78 µg/mL (≈ 1.03 µM)	0.39 µg/mL (≈ 0.515 µM)	6.25 µg/mL (≈ 8.25 µM)	3.13 µg/mL (≈ 4.13 µM)	0.05 µg/mL (≈ 0.066 µM)	> 100 µg/mL	0.39 µg/mL (≈ 0.515 µM)	1.56 µg/mL (≈ 2.06 µM)	0.1 µg/mL (≈ 0.132 µM)	MIC (H. influenzae Type b; 20 h): 12.5 µg/mL (≈ 16.5 µM)
CCCCO[C@H]1[C@H](C)O[C@@H](O[C@H]2[C@H](N(C)C)[C@@H](O)[C@H](O[C@H]3[C@@H](CC=O)C[C@@H](C)[C@@H](O)/C=C/C=C/C[C@@H](C)OC(=O)C[C@@H](O)[C@@H]3OC)O[C@@H]2C)C[C@@]1(C)OC [(10)]	strong antimicrobial activity	> 100 µg/mL	0.1 µg/mL (≈ 0.13 µM)	0.2 µg/mL (≈ 0.259 µM)	> 100 µg/mL	0.39 µg/mL (≈ 0.505 µM)	0.1 µg/mL (≈ 0.13 µM)	> 100 µg/mL	> 100 µg/mL	0.39 µg/mL (≈ 0.505 µM)	0.78 µg/mL (≈ 1.01 µM)	0.39 µg/mL (≈ 0.505 µM)	3.13 µg/mL (≈ 4.05 µM)	1.56 µg/mL (≈ 2.02 µM)	0.05 µg/mL (≈ 0.0648 µM)	> 100 µg/mL	0.39 µg/mL (≈ 0.505 µM)	0.78 µg/mL (≈ 1.01 µM)	0.1 µg/mL (≈ 0.13 µM)	MIC (H. influenzae Type b; H. influenzae Type b, 37° C., 20 hours): 12.5 µg/mL (≈ 16.2 µM); antimicrobial activity in vitro compared with MOM (test strains; data are not shown): clearly much superior to MOM; antimicrobial activity compared with LM-A7 (test strains; except on Haemophilus influenzae, Tables 2 and 3): comparable or superior
